Where a SMILES comes first, the peptide text is derived from it. Bridges are numbered along the chain shown (N, C = ends). [ ]: non-standard residue; d: D form. The star is where a group is joined. hPhe(3-Cl-4-CF3) = N[C@@H](CCc1ccc(C(F)(F)F)c(Cl)c1)C(=O)O; NPrPhe(4-CF3) = CCCN[C@@H](Cc1ccc(C(F)(F)F)cc1)C(=O)O; NMeGly(cPent) = CN[C@H](C(=O)O)C1CCCC1; Pro(4,4-F2) = O=C(O)[C@@H]1CC(F)(F)CN1; Pro(4,4-Me2) = CC1(C)CN[C@H](C(=O)O)C1; Pro(4S-Me) = C[C@@H]1CN[C@H](C(=O)O)C1; Hyp = O=C(O)[C@@H]1C[C@@H](O)CN1; NMeD = CN[C@@H](CC(=O)O)C(=O)O; NMeL = CN[C@@H](CC(C)C)C(=O)O; Morpholide = C1CN(*)CCO1; Ac5c = NC1(C(=O)O)CCCC1; Aze = O=C(O)[C@@H]1CCN1; Ac4c = NC1(C(=O)O)CCC1; Sar = CNCC(=O)O
Assays:
[1] = molecular target: GDP-bound HRAS wild-type protein (Homo sapiens, UniProt P01112); assay: Binding to HRAS by surface plasmon resonance (SPR), Single Cycle Kinetics; settings: SPR, GDP-bound HRAS wild-type protein vs GDP-bound KRAS wild-type protein
[2] = system: human lung cancer strain NCI-H441;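 note: cell proliferation inhibition after four days measured by CellTiter-Glo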
[3] = molecular target: GDP-bound NRAS wild-type protein (Homo sapiens, UniProt P01111); assay: Binding to NRAS by surface plasmon resonance (SPR), Single Cycle Kinetics; settings: SPR, GDP-bound NRAS wild-type protein vs GDP-bound KRAS wild-type protein
Chain of GDP-bound NRAS wild-type protein (P01111 whole entry): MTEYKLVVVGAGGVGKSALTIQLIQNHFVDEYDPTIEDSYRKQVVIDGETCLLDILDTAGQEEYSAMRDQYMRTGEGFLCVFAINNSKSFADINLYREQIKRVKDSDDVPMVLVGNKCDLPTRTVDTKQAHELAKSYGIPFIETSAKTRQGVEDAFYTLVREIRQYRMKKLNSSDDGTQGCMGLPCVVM

Chain of GDP-bound HRAS wild-type protein (P01112 whole entry): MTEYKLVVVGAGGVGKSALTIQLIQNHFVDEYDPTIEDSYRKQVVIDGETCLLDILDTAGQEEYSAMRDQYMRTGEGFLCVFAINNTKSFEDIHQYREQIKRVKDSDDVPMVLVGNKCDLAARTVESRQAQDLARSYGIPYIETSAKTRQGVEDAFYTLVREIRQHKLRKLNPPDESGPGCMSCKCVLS

Structure (SMILES) | HRAS/KRAS (ratio of KD value for HRAS to KD value for KRAS) [1] | IC50 [2] [nM] | NRAS/KRAS (ratio of KD value for NRAS to KD value for KRAS) [3] | HRAS/KRAS (ratio of KD value with respect to HRAS to KD value with respect to KRAS) [1] | NRAS/KRAS (ratio of KD value with respect to NRAS to KD value with respect to KRAS) [3]
CCCN1C(=O)CN(C)C(=O)[C@@H]2CCN2C(=O)[C@H]([C@@H](C)CC)NC(=O)[C@H](CC(C)C)N(C)C(=O)C[C@@H](C(=O)N2CCOCC2)NC(=O)[C@H](C2CCCC2)N(C)C(=O)C2(CCC2)NC(=O)[C@@H]2CC(F)(F)CN2C(=O)[C@H](CCc2ccc(C(F)(F)F)c(Cl)c2)NC(=O)CN(C)C(=O)[C@@H]1Cc1ccc(C(F)(F)F)cc1 [PP0340] ([NMeL]I[Aze][Sar][NPrPhe(4-CF3)][Sar][hPhe(3-Cl-4-CF3)][Pro(4,4-F2)][Ac4c][NMeGly(cPent)]D-Morpholide; lactam N-11) | B (a compound having 3 or more and less than 10 is denoted as B) | 177 | B (a compound having 3 or more and less than 10 is denoted as B) | – | –
CCCN1C(=O)CN(C)C(=O)[C@@H]2CCN2C(=O)[C@H]([C@@H](C)CC)NC(=O)[C@H](CC(C)C)N(C)C(=O)C[C@@H](C(=O)N2CCOCC2)NC(=O)[C@H](C2CCCC2)N(C)C(=O)C2(CCCC2)NC(=O)[C@@H]2C[C@@H](OCC)CN2C(=O)[C@H](CCc2ccc(C(F)(F)F)c(Cl)c2)NC(=O)CN(C)C(=O)[C@@H]1Cc1ccc(C(F)(F)F)cc1 [PP0341] ([NMeL]I[Aze][Sar][NPrPhe(4-CF3)][Sar][hPhe(3-Cl-4-CF3)][Hyp](Et)[Ac5c][NMeGly(cPent)]D-Morpholide; lactam N-11) | B (a compound having 3 or more and less than 10 is denoted as B) | 135 | B (a compound having 3 or more and less than 10 is denoted as B) | – | –
CCCN1C(=O)CN(C)C(=O)[C@@H]2CCN2C(=O)[C@H]([C@@H](C)CC)NC(=O)[C@H](CC(C)C)N(C)C(=O)C[C@@H](C(=O)N(C)C)NC(=O)[C@H](C2CCCC2)N(C)C(=O)C2(CCC2)NC(=O)[C@@H]2CC(F)(F)CN2C(=O)[C@H](CCc2ccc(C(F)(F)F)c(Cl)c2)NC(=O)CN(C)C(=O)[C@@H]1Cc1ccc(C(F)(F)F)cc1 [PP0376] ([NMeL]I[Aze][Sar][NPrPhe(4-CF3)][Sar][hPhe(3-Cl-4-CF3)][Pro(4,4-F2)][Ac4c][NMeGly(cPent)]D-NMe2; lactam N-11) | B (a compound having 3 or more and less than 10 is denoted as B) | 114 | B (a compound having 3 or more and less than 10 is denoted as B) | – | –
CCCN1C(=O)CN(C)C(=O)[C@@H]2CCN2C(=O)[C@H]([C@@H](C)CC)NC(=O)[C@H](CC(C)C)N(C)C(=O)C[C@@H](C(=O)N(C)C)NC(=O)[C@H](C2CCCC2)N(C)C(=O)C2(CCC2)NC(=O)[C@@H]2C[C@@H](OCC)CN2C(=O)[C@H](CCc2ccc(C(F)(F)F)c(Cl)c2)NC(=O)CN(C)C(=O)[C@@H]1Cc1ccc(C(F)(F)F)cc1 [PP0378] ([NMeL]I[Aze][Sar][NPrPhe(4-CF3)][Sar][hPhe(3-Cl-4-CF3)][Hyp](Et)[Ac4c][NMeGly(cPent)]D-NMe2; lactam N-11) | B (a compound having 3 or more and less than 10 is denoted as B) | 110 | B (a compound having 3 or more and less than 10 is denoted as B) | – | –
CCCN1C(=O)CN(C)C(=O)[C@@H]2CCN2C(=O)[C@H]([C@@H](C)CC)NC(=O)[C@H](CC(C)C)N(C)C(=O)C[C@@H](C(=O)N2CCOCC2)N(C)C(=O)[C@H](C2CCCC2)N(C)C(=O)C2(CCC2)NC(=O)[C@@H]2CCCN2C(=O)[C@H](CCc2ccc(C(F)(F)F)c(Cl)c2)NC(=O)CN(C)C(=O)[C@@H]1Cc1ccc(C(F)(F)F)cc1 [PP0402] ([NMeL]I[Aze][Sar][NPrPhe(4-CF3)][Sar][hPhe(3-Cl-4-CF3)]P[Ac4c][NMeGly(cPent)][NMeD]-Morpholide; lactam N-11) | C (A compound having a KD ratio of 0.1 or more and less than 3 is denoted as C) | 58.1 | B (a compound having 3 or more and less than 10 is denoted as B) | – | –
CCCN1C(=O)CN(C)C(=O)[C@@H]2CCN2C(=O)[C@H]([C@@H](C)CC)NC(=O)[C@H](CC(C)C)N(C)C(=O)C[C@@H](C(=O)N2CCOCC2)N(C)C(=O)[C@H](C2CCCC2)N(C)C(=O)C2(CCC2)NC(=O)[C@@H]2CC(F)(F)CN2C(=O)[C@H](CCc2ccc(C(F)(F)F)c(Cl)c2)NC(=O)CN(C)C(=O)[C@@H]1Cc1ccc(C(F)(F)F)cc1 [PP0404] ([NMeL]I[Aze][Sar][NPrPhe(4-CF3)][Sar][hPhe(3-Cl-4-CF3)][Pro(4,4-F2)][Ac4c][NMeGly(cPent)][NMeD]-Morpholide; lactam N-11) | C (A compound having a KD ratio of 0.1 or more and less than 3 is denoted as C) | 21.7 | B (a compound having 3 or more and less than 10 is denoted as B) | – | –
CCCN1C(=O)CN(C)C(=O)[C@@H]2CCN2C(=O)[C@H]([C@@H](C)CC)NC(=O)[C@H](CC(C)C)N(C)C(=O)C[C@@H](C(=O)N(C)C)N(C)C(=O)[C@H](C2CCCC2)N(C)C(=O)C2(CCCC2)NC(=O)[C@@H]2CCCN2C(=O)[C@H](CCc2ccc(C(F)(F)F)c(Cl)c2)NC(=O)CN(C)C(=O)[C@@H]1Cc1ccc(C(F)(F)F)cc1 [PP0429] ([NMeL]I[Aze][Sar][NPrPhe(4-CF3)][Sar][hPhe(3-Cl-4-CF3)]P[Ac5c][NMeGly(cPent)][NMeD]-NMe2; lactam N-11) | – | 12.4 | – | C (A compound having a KD ratio of 0.1 or more and less than 3 is denoted as C) | B (a compound having 3 or more and less than 10 is denoted as B)
CCCN1C(=O)CN(C)C(=O)[C@@H]2CCN2C(=O)[C@H]([C@@H](C)CC)NC(=O)[C@H](CC(C)C)N(C)C(=O)C[C@@H](C(=O)N(C)C)N(C)C(=O)[C@H](C2CCCC2)N(C)C(=O)C2(CCCC2)NC(=O)[C@@H]2CC(F)(F)CN2C(=O)[C@H](CCc2ccc(C(F)(F)F)c(Cl)c2)NC(=O)CN(C)C(=O)[C@@H]1Cc1ccc(C(F)(F)F)cc1 [PP0431] ([NMeL]I[Aze][Sar][NPrPhe(4-CF3)][Sar][hPhe(3-Cl-4-CF3)][Pro(4,4-F2)][Ac5c][NMeGly(cPent)][NMeD]-NMe2; lactam N-11) | – | 9.9 | – | C (A compound having a KD ratio of 0.1 or more and less than 3 is denoted as C) | B (a compound having 3 or more and less than 10 is denoted as B)
CCCN1C(=O)CN(C)C(=O)[C@@H]2CCN2C(=O)[C@H]([C@@H](C)CC)NC(=O)[C@H](CC(C)C)N(C)C(=O)C[C@@H](C(=O)N(C)C)N(C)C(=O)[C@H](C2CCCC2)N(C)C(=O)C2(CCC2)NC(=O)[C@@H]2CC(F)(F)CN2C(=O)[C@H](CCc2ccc(C(F)(F)F)c(Cl)c2)NC(=O)CN(C)C(=O)[C@@H]1Cc1ccc(C(F)(F)F)cc1 [PP0432] ([NMeL]I[Aze][Sar][NPrPhe(4-CF3)][Sar][hPhe(3-Cl-4-CF3)][Pro(4,4-F2)][Ac4c][NMeGly(cPent)][NMeD]-NMe2; lactam N-11) | – | 10.7 | – | B (a compound having 3 or more and less than 10 is denoted as B) | B (a compound having 3 or more and less than 10 is denoted as B)
CCCN1C(=O)CN(C)C(=O)[C@@H]2CCN2C(=O)[C@H]([C@@H](C)CC)NC(=O)[C@H](CC(C)C)N(C)C(=O)C[C@@H](C(=O)N2CCOCC2)N(C)C(=O)[C@H](C2CCCC2)N(C)C(=O)C2(CCCC2)NC(=O)[C@@H]2CC(C)(C)CN2C(=O)[C@H](CCc2ccc(C(F)(F)F)c(Cl)c2)NC(=O)CN(C)C(=O)[C@@H]1Cc1ccc(C(F)(F)F)cc1 [PP0452] ([NMeL]I[Aze][Sar][NPrPhe(4-CF3)][Sar][hPhe(3-Cl-4-CF3)][Pro(4,4-Me2)][Ac5c][NMeGly(cPent)][NMeD]-Morpholide; lactam N-11) | – | 34.1 | – | B (a compound having 3 or more and less than 10 is denoted as B) | B (a compound having 3 or more and less than 10 is denoted as B)
CCCN1C(=O)CN(C)C(=O)[C@@H]2CCN2C(=O)[C@H]([C@@H](C)CC)NC(=O)[C@H](CC(C)C)N(C)C(=O)C[C@@H](C(=O)N2CCOCC2)N(C)C(=O)[C@H](C2CCCC2)N(C)C(=O)C2(CCCC2)NC(=O)[C@@H]2C[C@H](C)CN2C(=O)[C@H](CCc2ccc(C(F)(F)F)c(Cl)c2)NC(=O)CN(C)C(=O)[C@@H]1Cc1ccc(C(F)(F)F)cc1 [PP0453] ([NMeL]I[Aze][Sar][NPrPhe(4-CF3)][Sar][hPhe(3-Cl-4-CF3)][Pro(4S-Me)][Ac5c][NMeGly(cPent)][NMeD]-Morpholide; lactam N-11) | – | 20.3 | – | C (A compound having a KD ratio of 0.1 or more and less than 3 is denoted as C) | B (a compound having 3 or more and less than 10 is denoted as B)
CC[C@H](C)[C@@H]1NC(=O)[C@H](CC(C)C)N(C)C(=O)C[C@@H](C(=O)N2CCOCC2)N(C)C(=O)[C@H](C2CCCC2)N(C)C(=O)C2(CCCC2)NC(=O)[C@@H]2CCCN2C(=O)[C@H](CCc2ccc(C(F)(F)F)c(Cl)c2)NC(=O)CN(C)C(=O)[C@H](Cc2ccc(C)cc2)N2CC=CC[C@@H](C2=O)N(C)C(=O)CN(C)C1=O [PP0460] | – | 5.4 | – | C (A compound having a KD ratio of 0.1 or more and less than 3 is denoted as C) | C (A compound having a KD ratio of 0.1 or more and less than 3 is denoted as C)
CC[C@H](C)[C@@H]1NC(=O)[C@H](CC(C)C)N(C)C(=O)C[C@@H](C(=O)N2CCOCC2)N(C)C(=O)[C@H](C2CCCC2)N(C)C(=O)C2(CCCC2)NC(=O)[C@@H]2CCCN2C(=O)[C@H](CCc2ccc(C(F)(F)F)c(Cl)c2)NC(=O)CN(C)C(=O)[C@H](Cc2ccccc2)N2CC=CC[C@@H](C2=O)N(C)C(=O)CN(C)C1=O [PP0528] | – | 21.8 | – | C (A compound having a KD ratio of 0.1 or more and less than 3 is denoted as C) | C (A compound having a KD ratio of 0.1 or more and less than 3 is denoted as C)

Source: patent US20240158446A1, “CYCLIC COMPOUND HAVING SELECTIVE INHIBITORY ACTION ON KRAS OVER HRAS AND NRAS” (CHUGAI SEIYAKU KABUSHIKI KAISHA, priority 2021, published 2024)
